Source: US9371265B2, “Compositions and methods related to inhibitors of JAK kinase” (EP PHARMA, INC., priority 2012, dated 2016)

What was measured:
SU-DHL-1 cells = assay: SU-DHL-1 cell viability (MTS); assay type: cell-based; conditions: Homo sapiens; SU-DHL-1, 72 hours
Method: (§1) FIGS. 7A-7C. EP009 reduces ALCL cell viability through induction of caspase 3 mediated apoptosis. (A) SUP-M2, SU-DHL-1 or H2228 cells were cultured with increasing amounts of EP009 (0-10 μM) for 72 hours and cell viability measured with the MTS tetrazolium salt assay. Values represent mean absorbance (OD490-OD650 nm) normalized to vehicle (PBS) treated control cells, while error bars represent the standard deviation (n=3). (B) SU-DHL-1 cells were treated with vehicle (PBS) or increasing amounts of EP009 (0-50 μM) for 24 hours. Cells were then lysed, clarified, and subjected to Luminex multiplex analysis to detect activated caspase 3 and (C) cleaved PARP. Values represent MFI normalized to corresponding GAPDH MFI, while error bars represent the standard deviation (n=2). Representative data from three independent experiments are shown. Statistical significance was determined using Student's t-test. (*, p<0.05).
(§2) Cell viability was assessed with 3-(4,5-dimethylthiazol-2-yl)-5-(3-carboxymethoxyphenyl)-2-(4-sulfophenyl)-2H-tetrazolium salt (MTS) reagent (Promega) in triplicates according to the manufacturer's instructions. Three independent experiments were performed. The error bars represent standard deviation.

H2228 = H2228 cell viability (MTS); assay type: cell-based, human; conditions: 0-10 μM, 72 hours
Method: as §1, §2

caspase 3 = assay: Caspase 3 activation in SU-DHL-1 cells (Luminex multiplex); assay type: cell-based, human; conditions: 24 hours, dose-dependent
Method: as §1
(§3) The MILLIPLEX MAP 8-plex Multi-Pathway Signaling Phosphoprotein kit (Millipore) was used to detect phosphorylated ERK1/2 (Thr185/Tyr187), STAT3 (Ser727), JNK1/2 (Thr183/Tyr185), p70 S6 kinase (Thr412), IκBα (Ser32), STAT5A/B (Tyr694/699), CREB (Ser133), and p38 (Thr180/Tyr182). The MILLIPLEX MAP 5-plex STAT Phosphoprotein kit (Millipore) was used to detect phosphorylated STAT1 (Tyr701), STAT2 (Tyr690), STAT3 (Tyr705), STAT5A/B (Tyr694/699), and STAT6 (Tyr641). […]

PARP = PARP cleavage in SU-DHL-1 cells (Luminex multiplex); assay type: cell-based, human; conditions: 24 hours, dose-dependent
Method: as §1, §3

ERK1/2 = assay: Phospho-ERK1/2 in SU-DHL-1 cells (Luminex multiplex); assay type: cell-based, human; conditions: 24 hours, dose-dependent
Method: FIGS. 8A-8F. Effect of EP009 on ALCL cells is mediated through selective activation of ERK1/2 and JNK1/2 stress signaling pathways, and inhibition of p70 S6 kinase growth signaling pathways. SU-DHL-1 cells were treated with vehicle (PBS) or increasing amounts of EP009 (0-50 μM) for 24 hours. Cells were then lysed, clarified, and subjected to Luminex multiplex analysis to detect phosphorylated (A) ERK1/2, (B) JNK1/2, (C) p70 S6 kinase, (D) IκBα, (E) CREB, and (F) p38. Values represent mean fluorescence intensity (MFI) normalized to corresponding GAPDH MFI, while error bars represent the standard deviation (n=2). Representative data from two independent experiments are shown. Statistical significance was determined using Student's t-test. (*, p<0.05).
The MILLIPLEX MAP 8-plex Multi-Pathway Signaling Phosphoprotein kit (Millipore) was used to detect phosphorylated ERK1/2 (Thr185/Tyr187), STAT3 (Ser727), JNK1/2 (Thr183/Tyr185), p70 S6 kinase (Thr412), IκBα (Ser32), STAT5A/B (Tyr694/699), CREB (Ser133), and p38 (Thr180/Tyr182). The MILLIPLEX MAP 5-plex STAT Phosphoprotein kit (Millipore) was used to detect phosphorylated STAT1 (Tyr701), STAT2 (Tyr690), STAT3 (Tyr705), STAT5A/B (Tyr694/699), and STAT6 (Tyr641). The MILLIPLEX MAP Human Apoptosis 3-plex kit (Millipore) was used to detect cleaved PARP, cleaved Caspase 3, and total GAPDH for protein normalization.

AKT2 = AKT2 (Homo sapiens, UniProt P31751); assay: Kinase panel: AKT2; assay type: biochemical; conditions: 10 μM EP009
Sequence of AKT2 (P31751 whole entry): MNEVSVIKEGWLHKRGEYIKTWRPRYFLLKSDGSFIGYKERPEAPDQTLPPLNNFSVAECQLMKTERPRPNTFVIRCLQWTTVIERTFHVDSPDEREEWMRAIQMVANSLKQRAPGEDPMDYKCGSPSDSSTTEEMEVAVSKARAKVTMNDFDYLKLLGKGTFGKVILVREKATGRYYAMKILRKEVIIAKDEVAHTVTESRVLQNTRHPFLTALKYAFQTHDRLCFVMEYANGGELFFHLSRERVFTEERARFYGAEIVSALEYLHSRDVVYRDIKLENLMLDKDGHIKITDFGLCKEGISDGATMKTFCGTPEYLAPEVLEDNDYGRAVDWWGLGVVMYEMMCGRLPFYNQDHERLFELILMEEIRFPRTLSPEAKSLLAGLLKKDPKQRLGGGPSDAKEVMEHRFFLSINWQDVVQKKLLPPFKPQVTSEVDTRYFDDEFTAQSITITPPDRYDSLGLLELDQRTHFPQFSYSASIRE
Method: (§4) Achieving JAK3 selectivity remains a significant challenge in the development of new small molecules for the treatment of cancer and immune-derived diseases. As such, the inventors employed cell-based screening assays of small-molecule libraries based upon the chemical scaffold of the established JAK3 inhibitor NC1153 (Stepkowski et al., J Immunol. (2005), 175(7):4236-4246) EP009 (FIG. 2A) was selected as a lead compound due to improved intrinsic stability (>95% purity in various solvents at 37° C. for 24 hours; FIG. 3) and high-degree of JAK3 selectivity. To test JAK3 versus JAK2 specificity of EP009, the IL-2/JAK3-dependent Kit225, and IL-3/JAK2-dependent BaF/3 cell lines were used. Kit225 and BaF/3 cells growing in the presence of IL-2 or IL-3, respectively, were treated with ascending concentrations of EP009 for 12 hours and cellular JAK3 and JAK2 tyrosine phosphorylation levels detected by Western blot analysis (FIGS. 2B and 2C). Following densitometric analysis, EP009 was determined to dose-dependently reduce IL-2-mediated JAK3 tyrosine phosphorylation with a cellular 50% inhibitory concentration (IC50) between 10 and 20 μM (FIG. 2B). […] To globally evaluate specificity, the inhibitory activity of EP009 was measured against a panel of protein kinases distributed throughout the kinome using the scanEDGE profiling service (KINOMEscan). […]

CSF1R = CSF1R (Homo sapiens, UniProt P07333); assay: Kinase panel: CSF1R; assay type: biochemical; conditions: 10 μM EP009
Sequence of CSF1R (P07333 20-972): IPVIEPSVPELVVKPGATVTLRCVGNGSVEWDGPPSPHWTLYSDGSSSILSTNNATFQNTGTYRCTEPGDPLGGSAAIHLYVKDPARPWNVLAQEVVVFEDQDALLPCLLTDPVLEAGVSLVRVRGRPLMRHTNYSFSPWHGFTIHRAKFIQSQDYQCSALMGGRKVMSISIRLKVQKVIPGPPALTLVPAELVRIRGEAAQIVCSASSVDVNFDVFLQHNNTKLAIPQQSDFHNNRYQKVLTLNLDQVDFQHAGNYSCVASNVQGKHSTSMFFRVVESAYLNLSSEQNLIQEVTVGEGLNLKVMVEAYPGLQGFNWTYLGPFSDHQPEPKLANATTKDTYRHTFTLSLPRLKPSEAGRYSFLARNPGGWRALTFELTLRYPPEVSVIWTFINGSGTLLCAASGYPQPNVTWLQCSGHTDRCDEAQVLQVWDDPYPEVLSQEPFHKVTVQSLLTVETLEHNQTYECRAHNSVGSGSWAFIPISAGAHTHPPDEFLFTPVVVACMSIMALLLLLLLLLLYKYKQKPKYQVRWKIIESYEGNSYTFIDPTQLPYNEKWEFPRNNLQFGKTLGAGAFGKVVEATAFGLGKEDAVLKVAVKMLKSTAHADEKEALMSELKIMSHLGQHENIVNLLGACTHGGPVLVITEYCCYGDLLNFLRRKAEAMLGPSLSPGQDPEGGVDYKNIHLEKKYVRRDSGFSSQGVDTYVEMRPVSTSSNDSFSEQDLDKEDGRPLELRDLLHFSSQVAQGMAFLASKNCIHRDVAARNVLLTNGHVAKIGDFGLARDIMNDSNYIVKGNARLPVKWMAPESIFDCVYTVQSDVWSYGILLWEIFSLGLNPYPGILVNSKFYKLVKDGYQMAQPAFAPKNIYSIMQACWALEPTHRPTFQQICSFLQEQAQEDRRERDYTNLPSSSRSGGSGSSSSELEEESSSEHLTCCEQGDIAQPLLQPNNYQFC
Method: as §4

FGFR2 = FGFR2 (Homo sapiens, UniProt P21802); assay: Kinase panel: FGFR2; assay type: biochemical; conditions: 10 μM EP009
Sequence of FGFR2 (P21802 22-821): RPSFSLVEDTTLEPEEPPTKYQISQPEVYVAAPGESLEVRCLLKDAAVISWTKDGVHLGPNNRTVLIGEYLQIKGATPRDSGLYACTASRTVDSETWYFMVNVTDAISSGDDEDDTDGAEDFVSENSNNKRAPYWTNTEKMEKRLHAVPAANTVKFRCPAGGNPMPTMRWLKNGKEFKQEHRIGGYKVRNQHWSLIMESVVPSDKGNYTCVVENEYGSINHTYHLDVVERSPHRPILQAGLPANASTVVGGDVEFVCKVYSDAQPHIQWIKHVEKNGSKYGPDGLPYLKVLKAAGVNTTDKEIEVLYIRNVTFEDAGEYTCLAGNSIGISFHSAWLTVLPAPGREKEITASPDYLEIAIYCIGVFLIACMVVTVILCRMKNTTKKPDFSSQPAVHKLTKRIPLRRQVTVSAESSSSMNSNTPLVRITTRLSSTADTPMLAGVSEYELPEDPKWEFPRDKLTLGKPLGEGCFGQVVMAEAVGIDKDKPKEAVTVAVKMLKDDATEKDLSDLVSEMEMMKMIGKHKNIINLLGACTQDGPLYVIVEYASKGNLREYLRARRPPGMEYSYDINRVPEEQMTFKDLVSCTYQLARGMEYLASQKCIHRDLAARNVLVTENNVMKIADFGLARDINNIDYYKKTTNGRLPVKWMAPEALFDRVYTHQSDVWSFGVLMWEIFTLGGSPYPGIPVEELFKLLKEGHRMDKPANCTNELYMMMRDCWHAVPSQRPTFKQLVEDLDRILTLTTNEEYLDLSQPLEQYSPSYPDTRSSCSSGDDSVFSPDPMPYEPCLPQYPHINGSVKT
Method: as §4

PAK4 = PAK4 (Homo sapiens, UniProt O96013); assay: Kinase panel: PAK4; assay type: biochemical; conditions: 10 μM EP009
Sequence of PAK4 (O96013 whole entry): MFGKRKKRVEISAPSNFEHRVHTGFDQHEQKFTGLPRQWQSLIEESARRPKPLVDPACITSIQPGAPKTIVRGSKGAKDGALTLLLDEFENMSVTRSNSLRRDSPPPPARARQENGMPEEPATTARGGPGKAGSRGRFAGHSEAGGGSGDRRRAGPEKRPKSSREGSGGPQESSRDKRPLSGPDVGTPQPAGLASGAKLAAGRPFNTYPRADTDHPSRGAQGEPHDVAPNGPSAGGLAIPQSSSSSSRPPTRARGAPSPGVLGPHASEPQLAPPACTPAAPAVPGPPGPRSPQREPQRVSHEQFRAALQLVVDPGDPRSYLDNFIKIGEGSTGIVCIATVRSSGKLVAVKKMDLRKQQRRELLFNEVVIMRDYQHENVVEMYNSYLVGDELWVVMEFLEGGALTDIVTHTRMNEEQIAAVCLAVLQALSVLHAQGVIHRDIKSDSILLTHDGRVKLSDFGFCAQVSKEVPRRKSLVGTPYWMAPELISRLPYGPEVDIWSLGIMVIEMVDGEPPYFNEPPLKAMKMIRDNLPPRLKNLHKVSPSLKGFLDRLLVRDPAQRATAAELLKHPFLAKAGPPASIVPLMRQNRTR
Method: as §4

PDPK1 = PDPK1 (Homo sapiens, UniProt O15530); assay: Kinase panel: PDPK1; assay type: biochemical; conditions: 10 μM EP009
Sequence of PDPK1 (O15530 whole entry): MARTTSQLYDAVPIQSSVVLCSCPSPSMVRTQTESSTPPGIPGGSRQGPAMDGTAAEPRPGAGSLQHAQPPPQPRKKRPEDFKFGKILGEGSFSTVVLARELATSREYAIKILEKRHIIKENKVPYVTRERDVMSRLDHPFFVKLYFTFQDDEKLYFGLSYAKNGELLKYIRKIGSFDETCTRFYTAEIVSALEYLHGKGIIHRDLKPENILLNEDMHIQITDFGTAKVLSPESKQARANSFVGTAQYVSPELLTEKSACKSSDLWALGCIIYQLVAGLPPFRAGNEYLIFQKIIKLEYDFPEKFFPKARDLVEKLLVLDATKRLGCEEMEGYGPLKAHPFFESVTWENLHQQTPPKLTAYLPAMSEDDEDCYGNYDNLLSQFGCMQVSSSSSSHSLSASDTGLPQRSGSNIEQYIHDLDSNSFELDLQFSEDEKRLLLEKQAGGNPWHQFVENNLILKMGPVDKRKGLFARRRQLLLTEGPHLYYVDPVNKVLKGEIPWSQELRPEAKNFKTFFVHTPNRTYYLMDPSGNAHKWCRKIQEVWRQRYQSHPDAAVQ
Method: as §4

PIK3CG = PIK3CG (Homo sapiens, UniProt P48736); assay: Kinase panel: PIK3CG; assay type: biochemical; conditions: 10 μM EP009
Sequence of PIK3CG (P48736 whole entry): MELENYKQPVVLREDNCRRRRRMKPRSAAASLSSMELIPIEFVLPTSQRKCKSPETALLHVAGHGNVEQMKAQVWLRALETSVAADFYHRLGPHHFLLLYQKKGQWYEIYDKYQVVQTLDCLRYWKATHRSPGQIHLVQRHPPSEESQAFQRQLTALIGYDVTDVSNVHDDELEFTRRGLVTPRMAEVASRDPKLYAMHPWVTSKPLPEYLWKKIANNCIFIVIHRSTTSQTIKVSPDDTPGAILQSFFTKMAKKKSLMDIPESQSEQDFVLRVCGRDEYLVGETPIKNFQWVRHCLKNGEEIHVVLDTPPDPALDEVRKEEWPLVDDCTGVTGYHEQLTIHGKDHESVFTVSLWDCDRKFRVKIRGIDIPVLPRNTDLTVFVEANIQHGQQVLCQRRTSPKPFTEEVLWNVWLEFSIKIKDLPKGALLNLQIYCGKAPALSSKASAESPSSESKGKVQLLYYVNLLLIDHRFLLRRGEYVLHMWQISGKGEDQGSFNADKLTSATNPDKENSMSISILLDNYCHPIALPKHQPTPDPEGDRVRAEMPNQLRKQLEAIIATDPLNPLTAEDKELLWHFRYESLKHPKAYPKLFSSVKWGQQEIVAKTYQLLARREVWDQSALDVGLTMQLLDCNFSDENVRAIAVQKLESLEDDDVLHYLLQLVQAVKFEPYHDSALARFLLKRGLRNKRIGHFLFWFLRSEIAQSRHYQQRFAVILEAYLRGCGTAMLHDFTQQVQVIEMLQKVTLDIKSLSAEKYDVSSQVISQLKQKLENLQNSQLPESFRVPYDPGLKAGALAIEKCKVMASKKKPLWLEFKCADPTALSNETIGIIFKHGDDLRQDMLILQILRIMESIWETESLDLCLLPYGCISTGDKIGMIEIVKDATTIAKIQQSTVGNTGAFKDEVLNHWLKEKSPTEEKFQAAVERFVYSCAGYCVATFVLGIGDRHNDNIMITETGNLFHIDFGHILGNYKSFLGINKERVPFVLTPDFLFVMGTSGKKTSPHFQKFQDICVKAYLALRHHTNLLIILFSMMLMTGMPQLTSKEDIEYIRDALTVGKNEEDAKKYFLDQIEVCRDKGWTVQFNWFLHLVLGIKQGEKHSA
Method: as §4

RIOK2 = RIOK2 (Homo sapiens, UniProt Q9BVS4); assay: Kinase panel: RIOK2; assay type: biochemical; conditions: 10 μM EP009
Sequence of RIOK2 (Q9BVS4 whole entry): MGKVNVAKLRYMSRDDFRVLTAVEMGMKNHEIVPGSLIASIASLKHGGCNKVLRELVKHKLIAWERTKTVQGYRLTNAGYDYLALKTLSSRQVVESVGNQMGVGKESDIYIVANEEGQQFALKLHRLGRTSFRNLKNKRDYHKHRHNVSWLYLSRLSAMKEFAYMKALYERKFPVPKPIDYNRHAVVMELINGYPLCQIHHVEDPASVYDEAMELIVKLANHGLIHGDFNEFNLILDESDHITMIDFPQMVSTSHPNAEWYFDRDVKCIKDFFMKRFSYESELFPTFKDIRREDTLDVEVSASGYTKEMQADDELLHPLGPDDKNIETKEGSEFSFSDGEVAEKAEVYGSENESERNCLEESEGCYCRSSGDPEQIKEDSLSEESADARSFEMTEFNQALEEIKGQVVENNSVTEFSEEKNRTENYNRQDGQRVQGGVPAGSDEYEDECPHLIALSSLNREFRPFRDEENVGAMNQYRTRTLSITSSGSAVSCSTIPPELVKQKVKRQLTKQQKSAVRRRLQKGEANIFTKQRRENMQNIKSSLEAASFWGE
Method: as §4

Q: `C=C1CCCCCCCCCC(CO)C1=O` (stereo not drawn) [EP009, 2-(Hydroxymethyl)-12-methylenecyclododecanone] was tested. Which IC50 (SU-DHL-1 cells) did it give?
A: The IC50 was 5 µM.

Q: What about the “effect on H2228 cell viability” value (H2228) of the same molecule?
A: The value was “no effect”.

Q: What about the caspase-3 activation (caspase 3) of the same molecule?
A: Its caspase-3 activation is “increased”.

Q: And the PARP cleavage (PARP)?
A: The PARP cleavage was “increased”.

Q: What about the ERK1/2 phosphorylation (ERK1/2) of the same molecule?
A: Its ERK1/2 phosphorylation is “induced phosphorylation and activation”.

Q: What about the “Kinase Activity (% of Control)” value (AKT2) of the same molecule?
A: The value was 100 % of Control.

Q: And the “Kinase Activity (% of Control)” value (CSF1R)?
A: Its value is 94 % of Control.

Q: What about the “Kinase Activity (% of Control)” value (FGFR2) of the same molecule?
A: Its value is 100 % of Control.

Q: What about the “Kinase Activity (% of Control)” value (PAK4) of the same molecule?
A: The value was 100 % of Control.

Q: What about the “Kinase Activity (% of Control)” value (PDPK1) of the same molecule?
A: Its value is 100 % of Control.

Q: And the “Kinase Activity (% of Control)” value (PIK3CG)?
A: The value was 75 % of Control.

Q: And the “Kinase Activity (% of Control)” value (RIOK2)?
A: The value was 69 % of Control.
